Measurements: US20230085307A1, “PYRIDAZINONE COMPOUND AND HERBICIDE” (NISSAN CHEMICAL CORPORATION, priority 2019, published 2023)

Experiments:
barnyard grass [1] = assay: Test Example 3: herbicidal effect by foliage application, Wagner pot (Table 18, symbol H); assay type: in vivo, barnyard grass (Echinochloa crus-galli)
In short: (§1)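 Plants were sown in alluvial soil held under 0.1–0.5 cm standing water and grown 14 days in a greenhouse at 25–30 °C. An emulsifiable formulation, water-diluted to the set dose, was then sprayed onto the foliage, and effects were scored three weeks later using previously defined criteria.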

Chinese sprangletop = assay: Test Example 3: herbicidal effect by foliage application, Wagner pot (Table 18, symbol D); assay type: in vivo, chinese sprangletop (Leptochloa chinensis)
In short: as §1

rice flat sedge = assay: Test Example 3: herbicidal effect by foliage application, Wagner pot (Table 18, symbol E); assay type: in vivo, rice flat sedge (Cyperus iria)
In short: as §1

southern crabgrass [2] = assay: Test Example 4: herbicidal effect by soil treatment (Table 19, symbol F); assay type: in vivo, southern crabgrass (Digitaria ciliaris); details: 294 g/ha
In short: (§2)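 Emulsion of test compound, water-diluted to predetermined amount, sprayed on soil after sowing (seed depth ~1.5 cm, sterilized diluvial soil). Greenhouse, 25–30° C. Effect graded at three weeks post-spray.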

green foxtail [3] = assay: Test Example 4: herbicidal effect by soil treatment (Table 19, symbol G); assay type: in vivo, green foxtail (Setaria viridis); details: 294 g/ha
In short: as §2

barnyard grass [4] = assay: Test Example 4: herbicidal effect by soil treatment (Table 19, symbol H); assay type: in vivo, barnyard grass (Echinochloa crus-galli); details: 294 g/ha
In short: as §2

wild oat [5] = assay: Test Example 4: herbicidal effect by soil treatment (Table 19, symbol I); assay type: in vivo, wild oat (Avena fatua); details: 294 g/ha
In short: as §2

blackgrass [6] = assay: Test Example 4: herbicidal effect by soil treatment (Table 19, symbol J); assay type: in vivo, blackgrass (Alopecurus myosuroides); details: 294 g/ha
In short: as §2

Italian ryegrass [7] = assay: Test Example 4: herbicidal effect by soil treatment (Table 19, symbol K); assay type: in vivo, Italian ryegrass (Lolium multiflorum); details: 294 g/ha
In short: as §2

windgrass [8] = assay: Test Example 4: herbicidal effect by soil treatment (Table 19, symbol L); assay type: in vivo, windgrass (Apera spica-venti); details: 294 g/ha
In short: as §2

velvetleaf [9] = assay: Test Example 4: herbicidal effect by soil treatment (Table 19, symbol M); assay type: in vivo, velvetleaf (Abutilon theophrasti); details: 294 g/ha
In short: as §2

redroot pigweed [10] = assay: Test Example 4: herbicidal effect by soil treatment (Table 19, symbol N); assay type: in vivo, redroot pigweed (Amaranthus retroflexus); details: 294 g/ha
In short: as §2

lambsquarters [11] = assay: Test Example 4: herbicidal effect by soil treatment (Table 19, symbol O); assay type: in vivo, lambsquarters (Chenopodium album); details: 294 g/ha
In short: as §2

chickweed [12] = assay: Test Example 4: herbicidal effect by soil treatment (Table 19, symbol P); assay type: in vivo, common chickweed (Stellaria media); details: 294 g/ha
In short: as §2

persian speedwell [13] = assay: Test Example 4: herbicidal effect by soil treatment (Table 19, symbol R); assay type: in vivo, Persian speedwell (Veronica persica); details: 294 g/ha
In short: as §2

southern crabgrass [14] = assay: Test Example 5: herbicidal effect by foliage application, plastic box (Table 20, symbol F); assay type: in vivo, southern crabgrass (Digitaria ciliaris)
In short: (§3)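 Post-emergence foliar test in sterilized diluvial soil. Compound applied as water-diluted emulsion at a predetermined rate to 14-day-old plants; evaluation at three weeks.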

green foxtail [15] = assay: Test Example 5: herbicidal effect by foliage application, plastic box (Table 20, symbol G); assay type: in vivo, green foxtail (Setaria viridis)
In short: as §3

barnyard grass [16] = assay: Test Example 5: herbicidal effect by foliage application, plastic box (Table 20, symbol H); assay type: in vivo, barnyard grass (Echinochloa crus-galli)
In short: as §3

wild oat [17] = assay: Test Example 5: herbicidal effect by foliage application, plastic box (Table 20, symbol I); assay type: in vivo, wild oat (Avena fatua)
In short: as §3

blackgrass [18] = assay: Test Example 5: herbicidal effect by foliage application, plastic box (Table 20, symbol J); assay type: in vivo, blackgrass (Alopecurus myosuroides)
In short: as §3

Italian ryegrass [19] = assay: Test Example 5: herbicidal effect by foliage application, plastic box (Table 20, symbol K); assay type: in vivo, Italian ryegrass (Lolium multiflorum)
In short: as §3

windgrass [20] = assay: Test Example 5: herbicidal effect by foliage application, plastic box (Table 20, symbol L); assay type: in vivo, windgrass (Apera spica-venti)
In short: as §3

velvetleaf [21] = assay: Test Example 5: herbicidal effect by foliage application, plastic box (Table 20, symbol M); assay type: in vivo, velvetleaf (Abutilon theophrasti)
In short: as §3

lambsquarters [22] = assay: Test Example 5: herbicidal effect by foliage application, plastic box (Table 20, symbol O); assay type: in vivo, lambsquarters (Chenopodium album)
In short: as §3

false cleavers = assay: Test Example 5: herbicidal effect by foliage application, plastic box (Table 20, symbol Q); assay type: in vivo, false cleavers (Galium spurium)
In short: as §3

persian speedwell [23] = assay: Test Example 5: herbicidal effect by foliage application, plastic box (Table 20, symbol R); assay type: in vivo, Persian speedwell (Veronica persica)
In short: as §3

redroot pigweed [24] = assay: Test Example 5: herbicidal effect by foliage application, plastic box (Table 20, symbol N); assay type: in vivo, redroot pigweed (Amaranthus retroflexus); details: 320 g/ha, foliage application after 14-day growth, evaluated three weeks after application
In short: as §3

chickweed [25] = assay: Test Example 5: herbicidal effect by foliage application, plastic box (Table 20, symbol P); assay type: in vivo, common chickweed (Stellaria media); details: 320 g/ha, foliage application after 14-day growth, evaluated three weeks after application
In short: as §3

[26] = foliage application, 294 g/ha, 3 weeks after application
[27] = 320 g/ha, foliage application after 14-day growth, evaluated three weeks after application

With COc1ccccc1-c1sc2ccc(F)cc2c1-c1c(O)c(C)nn(C)c1=O [2-024] as the compound, how does the “herbicidal effect on H (barnyard grass), rating 0-5” value (barnyard grass [1]; 294 g/ha) read?
The value was 4 (Herbicidal rate of 70% or more and less than 90%).

And the “herbicidal effect on D (Chinese sprangletop), rating 0-5” value (Chinese sprangletop; 294 g/ha)?
Its value is 3 (Herbicidal rate of 40% or more and less than 70%).

And the “herbicidal effect on E (rice flat sedge), rating 0-5” value (rice flat sedge; 294 g/ha)?
The value was 4 (Herbicidal rate of 70% or more and less than 90%).

And the “herbicidal effect rating, F: southern crabgrass” value (southern crabgrass [2])?
The value was 3 (Herbicidal rate of 40% or more and less than 70%).

What about the “herbicidal effect rating, G: green foxtail” value (green foxtail [3]) of the same compound?
The value was 3 (Herbicidal rate of 40% or more and less than 70%).

And the “herbicidal effect rating, H: barnyard grass” value (barnyard grass [4])?
The value was 1 (Herbicidal rate of 5% or more and less than 20%).

What about the “herbicidal effect rating, I: wild oat” value (wild oat [5]) of the same compound?
The value was 0 (Herbicidal rate of 5% or less (almost no effect)).

What about the “herbicidal effect rating, J: blackgrass” value (blackgrass [6]) of the same compound?
Its value is 2 (Herbicidal rate of 20% or more and less than 40%).

And the “herbicidal effect rating, K: Italian ryegrass” value (Italian ryegrass [7])?
Its value is 0 (Herbicidal rate of 5% or less (almost no effect)).

What about the “herbicidal effect rating, L: windgrass” value (windgrass [8]) of the same compound?
The value was 0 (Herbicidal rate of 5% or less (almost no effect)).

And the “herbicidal effect rating, M: velvetleaf” value (velvetleaf [9])?
The value was 2 (Herbicidal rate of 20% or more and less than 40%).

What about the “herbicidal effect rating, N: redroot pigweed” value (redroot pigweed [10]) of the same compound?
The value was 5 (Herbicidal rate of 90% or more (almost completely withered)).

What about the “herbicidal effect rating, O: lambsquarters” value (lambsquarters [11]) of the same compound?
Its value is 5 (Herbicidal rate of 90% or more (almost completely withered)).

And the “herbicidal effect rating, P: chickweed” value (chickweed [12])?
Its value is 3 (Herbicidal rate of 40% or more and less than 70%).

And the “herbicidal effect rating, R: persian speedwell” value (persian speedwell [13])?
Its value is 4 (Herbicidal rate of 70% or more and less than 90%).

And the “effect on southern crabgrass (F)” value (southern crabgrass [14]; [26])?
The value was 3 (Herbicidal rate of 40% or more and less than 70%).

What about the “effect on green foxtail (G)” value (green foxtail [15]; [26]) of the same compound?
Its value is 4 (Herbicidal rate of 70% or more and less than 90%).

What about the “effect on barnyard grass (H)” value (barnyard grass [16]; [26]) of the same compound?
Its value is 5 (Herbicidal rate of 90% or more (almost completely withered)).

What about the “effect on wild oat (I)” value (wild oat [17]; [26]) of the same compound?
The value was 4 (Herbicidal rate of 70% or more and less than 90%).

And the “effect on blackgrass (J)” value (blackgrass [18]; [26])?
Its value is 5 (Herbicidal rate of 90% or more (almost completely withered)).

What about the “effect on Italian ryegrass (K)” value (Italian ryegrass [19]; [26]) of the same compound?
The value was 3 (Herbicidal rate of 40% or more and less than 70%).

What about the “effect on windgrass (L)” value (windgrass [20]; [26]) of the same compound?
The value was 4 (Herbicidal rate of 70% or more and less than 90%).

And the “effect on velvetleaf (M)” value (velvetleaf [21]; [26])?
The value was 5 (Herbicidal rate of 90% or more (almost completely withered)).

And the “effect on lambsquarters (O)” value (lambsquarters [22]; [26])?
The value was 5 (Herbicidal rate of 90% or more (almost completely withered)).

What about the “effect on false cleavers (Q)” value (false cleavers; [26]) of the same compound?
Its value is 5 (Herbicidal rate of 90% or more (almost completely withered)).

And the “effect on persian speedwell (R)” value (persian speedwell [23]; [26])?
Its value is 5 (Herbicidal rate of 90% or more (almost completely withered)).

For CCCC(=O)Oc1c(C)nn(C)c(=O)c1-c1c(-c2ccc(C(F)(F)F)cc2)sc2cc(Cl)ccc12 [3-146], which “herbicidal effect on barnyard grass (H)” value (barnyard grass [1]; 320 g/ha) is on record?
Its value is 3 (Herbicidal rate of 40% or more and less than 70%).

And the “herbicidal effect on Chinese sprangletop (D)” value (Chinese sprangletop; 320 g/ha)?
Its value is 3 (Herbicidal rate of 40% or more and less than 70%).

What about the “herbicidal effect on rice flat sedge (E)” value (rice flat sedge; 320 g/ha) of the same compound?
The value was 3 (Herbicidal rate of 40% or more and less than 70%).

What about the “herbicidal effect on F: southern crabgrass (evaluation grade 0-5)” value (southern crabgrass [14]; [27]) of the same compound?
Its value is 1 (Herbicidal rate of 5% or more and less than 20%).

And the “herbicidal effect on G: green foxtail (evaluation grade 0-5)” value (green foxtail [15]; [27])?
The value was 2 (Herbicidal rate of 20% or more and less than 40%).

What about the “herbicidal effect on H: barnyard grass (evaluation grade 0-5)” value (barnyard grass [16]; [27]) of the same compound?
The value was 0 (Herbicidal rate of 5% or less (almost no effect)).

And the “herbicidal effect on I: wild oat (evaluation grade 0-5)” value (wild oat [17]; [27])?
Its value is 0 (Herbicidal rate of 5% or less (almost no effect)).

What about the “herbicidal effect on J: blackgrass (evaluation grade 0-5)” value (blackgrass [18]; [27]) of the same compound?
Its value is 0 (Herbicidal rate of 5% or less (almost no effect)).

What about the “herbicidal effect on K: Italian ryegrass (evaluation grade 0-5)” value (Italian ryegrass [19]; [27]) of the same compound?
The value was 0 (Herbicidal rate of 5% or less (almost no effect)).

And the “herbicidal effect on L: windgrass (evaluation grade 0-5)” value (windgrass [20]; [27])?
The value was 0 (Herbicidal rate of 5% or less (almost no effect)).

What about the “herbicidal effect on M: velvetleaf (evaluation grade 0-5)” value (velvetleaf [21]; [27]) of the same compound?
Its value is 0 (Herbicidal rate of 5% or less (almost no effect)).

What about the “herbicidal effect on N: redroot pigweed (evaluation grade 0-5)” value (redroot pigweed [24]) of the same compound?
The value was 3 (Herbicidal rate of 40% or more and less than 70%).

And the “herbicidal effect on O: lambsquarters (evaluation grade 0-5)” value (lambsquarters [22]; [27])?
The value was 3 (Herbicidal rate of 40% or more and less than 70%).

And the “herbicidal effect on P: chickweed (evaluation grade 0-5)” value (chickweed [25])?
Its value is 5 (Herbicidal rate of 90% or more (almost completely withered)).

And the “herbicidal effect on Q: false cleavers (evaluation grade 0-5)” value (false cleavers; [27])?
Its value is 1 (Herbicidal rate of 5% or more and less than 20%).

And the “herbicidal effect on R: persian speedwell (evaluation grade 0-5)” value (persian speedwell [23]; [27])?
The value was 4 (Herbicidal rate of 70% or more and less than 90%).
